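Five concentrations, 48 hours, 96-well plates. At the GI50, growth is halved. TGI: concentration producing complete growth inhibition.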
Legend:
Assay in all cases: NCI tumour cell line growth inhibition, 48 h
[1] = system: HL-60(TB) leukemia
[2] = system: SK-OV-3 ovarian
[3] = system: SF-268 CNS
[4] = system: COLO 205 colon
[5] = system: HCT-116 colon
[6] = system: K-562 leukemia
[7] = system: HT29 colon
[8] = system: CAKI-1 renal
[9] = system: DU-145 prostate
[10] = system: EKVX NSCLC

SMILES: CN(C)CCCC(=O)Nc1ccc(Cn2nnc3c2C(=O)c2nnn(Cc4ccc(NC(=O)CCCN(C)C)cc4)c2C3=O)cc1
- GI50 [1]: 1.75 µM
- TGI [1]: 5.17 µM
- GI50 [2]: 20.9 µM
- TGI [2]: 49 µM
- GI50 [3]: 3.29 µM
- TGI [3]: 12.8 µM
- GI50 [4]: 1.79 µM
- TGI [4]: 3.52 µM
- GI50 [5]: 3.03 µM
- TGI [5]: 11.6 µM
- GI50 [6]: 5.45 µM
- TGI [6]: 55.9 µM
- GI50 [7]: 3.22 µM
- TGI [7]: 7.87 µM
- GI50 [8]: > 100 µM
- TGI [8]: > 100 µM
- GI50 [9]: 3.48 µM
- TGI [9]: 10.6 µM

SMILES: CC(C)CC(=O)CC(O)C(Cl)(Cl)Cl (stereo not given)
- TGI [2]: > 100 µM
- TGI [10]: > 100 µM
- TGI [4]: > 100 µM
- TGI [5]: > 100 µM
- TGI [6]: > 100 µM
- TGI [7]: > 100 µM
- TGI [8]: > 100 µM
- TGI [9]: > 100 µM

SMILES: CC1=C(c2cc(C(=O)Nc3cccc(C(F)(F)F)c3)nc(NC#N)n2)Sc2ccccc2N1
- TGI [1]: > 100 µM
- TGI [2]: > 100 µM
- TGI [10]: > 100 µM
- TGI [3]: > 100 µM
- TGI [4]: > 100 µM
- TGI [5]: > 100 µM
- TGI [6]: > 100 µM
- TGI [7]: > 100 µM
- TGI [8]: > 100 µM

SMILES: CC(C)(C)C(=O)OCC(COC(=O)C(C)(C)C)[N+](=O)[O-]
- TGI [1]: 79.8 µM
- TGI [2]: > 100 µM
- TGI [10]: > 100 µM
- TGI [3]: > 100 µM
- TGI [4]: > 100 µM
- TGI [5]: > 100 µM
- TGI [6]: > 100 µM
- TGI [7]: > 100 µM
- TGI [8]: > 100 µM

SMILES: COc1ccc(N2C(=O)C3c4[nH]c5ccccc5c4C4CCC(C(C)(C)C)CC4C3C2=O)cc1OC (stereo not given)
- TGI [1]: > 100 µM
- TGI [2]: 45 µM
- TGI [10]: > 100 µM
- TGI [3]: 38.3 µM
- TGI [4]: > 100 µM
- TGI [5]: 31.4 µM
- TGI [6]: 84.5 µM
- TGI [7]: > 100 µM

SMILES: O=C1CCC(=O)C12CCc1cccc(O)c12
- TGI [1]: > 100 µM
- TGI [2]: > 100 µM
- TGI [10]: > 100 µM
- TGI [3]: > 100 µM
- TGI [4]: > 100 µM
- TGI [6]: > 100 µM
- TGI [7]: > 100 µM
- TGI [8]: > 100 µM

SMILES: COc1ccc(-c2nn(-c3cccc(NC(=O)Nc4cccc(C(F)(F)F)c4)c3)cc2-c2ccncc2)cc1Cl
- GI50 [1]: 1.95 µM
- TGI [1]: 6.26 µM
- GI50 [2]: 3.58 µM
- TGI [2]: > 100 µM
- GI50 [3]: 3.22 µM
- TGI [3]: > 100 µM
- GI50 [4]: 1.69 µM
- TGI [4]: 3.69 µM
- GI50 [5]: 1.31 µM
- TGI [5]: 9.04 µM
- GI50 [6]: 1.92 µM
- TGI [6]: > 100 µM
- GI50 [7]: 2.24 µM
- TGI [7]: 49.1 µM
- GI50 [8]: 1.77 µM
- TGI [8]: > 100 µM
- GI50 [9]: 3.56 µM
- TGI [9]: > 100 µM

SMILES: COC1(OC)c2ccccc2C2(O)c3ccccc3C(=O)C12 (stereo not given)
- TGI [1]: 46 µM
- TGI [2]: > 100 µM
- TGI [10]: > 100 µM
- TGI [3]: > 100 µM
- TGI [4]: 27 µM
- TGI [5]: > 100 µM
- TGI [6]: > 100 µM
- TGI [7]: > 100 µM

SMILES: Cn1cnc([N+](=O)[O-])c1Sc1nnc(C(F)(F)F)n1C
- TGI [2]: > 100 µM
- TGI [10]: > 100 µM
- TGI [3]: > 100 µM
- TGI [4]: 28.8 µM
- TGI [5]: 32.5 µM
- TGI [6]: 63.6 µM
- TGI [7]: > 100 µM
- TGI [8]: > 100 µM

SMILES: COc1ccc(/C=C/C(C(=O)O)C(=O)O)cc1
- TGI [1]: 74.7 µM
- TGI [2]: > 100 µM
- TGI [10]: > 100 µM
- TGI [3]: > 100 µM
- TGI [4]: > 100 µM
- TGI [5]: > 100 µM
- TGI [6]: > 100 µM
- TGI [7]: > 100 µM
- TGI [8]: > 100 µM

SMILES: CCc1cccc(C(C)CC)c1NC(=O)CC1C(=O)Nc2ccccc2S1=O (stereo not given)
- TGI [1]: > 100 µM
- TGI [10]: > 100 µM
- TGI [3]: > 100 µM
- TGI [5]: > 100 µM
- TGI [6]: > 100 µM
- TGI [7]: 55.1 µM
- TGI [8]: > 100 µM

Source: PubChem BioAssay (NCI)
